For one data set, the target named is wild type transthyretin (Homo sapiens, UniProt P02766). The experiment in a line: Mass spectrometric analysis of ligand dissociation under increasing cone voltage. The class given is binding. Also on record: made in house. The source says:
4.3. Mass spectrometric analysis of dissociation of 4ajm15 from wild type and amyloidogenic variant transthyretin. ESMS spectra were acquired under increasing cone voltage conditions to induce stepwise dissociation of the ligand from wild type transthyretin and amyloidogenic variants V30M and L55P transthyretin. As the cone voltage increases splitting becomes apparent in the tetramer peaks, corresponding to apo (protein alone) and holo (protein+ligand) transthyretin as ligand begins to dissociate.
L55P transthyretin and [^15N, ^13C] wild type transthyretin in a 2 fold excess of 4ajm15. […] In spectrum β the onset of 4ajm15 dissociation from wild type tetramer is observed (a) while no ligand dissociation is observed from L55P transthyretin. Dissociation from wild type transthyretin progresses with increasing collisional energy in spectrum γ, but it is not until spectrum δ, where approximately 50% of the wild type is apo, that ligand dissociation from L55P transthyretin is observed (a).
V30M transthyretin and [^15N, ^13C] wild type transthyretin in a 2 fold excess of ligand. In A, at the onset of 4ajm15 dissociation (spectrum β) the peak height corresponding to apo V30M transthyretin is lower than that for wild type (labelled a and a respectively) for each charge state. At high energy level (γ), ligand dissociation from wild type is complete while a proportion of […] V30M remains (h). […]

Data set [1] is described as follows: Solubility as noted for calorimetry. The settings on record: in words, reason ITC could not be performed. The class given is physicochemical.
The next data set deals with T1, transthyretin (Homo sapiens, UniProt P02766).
T1 construct: Native tetrameric transthyretin was purified from fractionated human plasma; from tissue; host or cells: human plasma
The data set can be described thus: Analytical ultracentrifugation (sedimentation velocity and equilibrium). It is filed as biochemical. How it is done: 4.1. Analytical ultracentrifugation. Sedimentation velocity and equilibrium analytical centrifugation experiments were performed at 20° C. on a Beckman XL-I instrument equipped with an An50Ti rotor in which both absorbance (recorded at a wavelength of 280 nm) and interference scans were recorded simultaneously. Sedimentation analyses were performed at pH 4.4 by incubating the protein (3.6 μM) for 72 h under the conditions of the stagnant transthyretin aggregation-inhibition assay (Petrassi et al., 2000) in presence of the ligand (3.6 μM). […] Sedimentation velocity data were acquired over 8 h at rotor speed of 42,000 rpm in two-sector cells with solution column heights of 12 mm. Absorbance values were modelled as a continuous distribution of sedimentation coefficients, c(s) (Schuck, 2000) using the software SEDFIT (Schuck, 2005). Sedimentation equilibrium measurements of transthyretin bound to the ligand, in the same conditions used for the sedimentation velocity analysis, were acquired using six-sector cells in an AnTi 50 rotor with column heights of 2 mm at rotor speed of 17,000 rpm until equilibrium was reached as shown by the perfect overlay of runs measured at intervals of 5 h. A final run at 42,000 rpm was performed at the end of the experiment to determine the background levels for use in curve fitting. Data analysis was performed using Beckman software provided as an add-on to Origin Version 4.1 (Microcal Inc.) for which the partial specific volume was calculated to be 0.7353 ml/g from the amino acid sequence (Perkins, 1986). The buffer density and viscosity were calculated using the program […] (Laue et al., 1992). […] Sedimentation equilibrium analysis of transthyretin in the presence of the ligand was entirely consistent with a single species of mass 55,784±107.87 Da, in good agreement with the calculated molecular mass of tetrameric wild type transthyretin with bound 4ajm15 (55794 Da). […]

Entries after “also recorded” stand apart in the source; their conditions may differ.

As for `O=C(O)c1ccccc1Nc1cc(Cl)c(OCCCCCCCCCCCOc2c(Cl)cc(Nc3ccccc3C(=O)O)cc2Cl)c(Cl)c1` [4ajm15, 2,2′-(4,4′-(undecane-1,11-diylbis(oxy))bis(3,5-dichloro-4,1-phenylene))bis(azanediyl)dibenzoic acid], the “peak height of apo wild type transthyretin at onset of dissociation (spectrum β)” value at wild type transthyretin (equimolar 4.4 μM with V30M, 2 fold excess of ligand) is around 75%. Further, the “relative binding avidities for ligand among transthyretin forms” value at wild type transthyretin (wild type versus V30M and L55P, increasing cone voltage) is “wild type transthyretin<V30M transthyretin<L55P transthyretin”. The solubility result in data set [1] is “limited solubility; also recorded: too insoluble”. Moreover, the “sedimentation coefficient of transthyretin with bound ligand” value on transthyretin (3.6 μM protein, 3.6 μM ligand, 72 h 37° C., pH 4.4) was determined as 3.7 S. For the same molecule, at transthyretin (3.6 μM protein, 3.6 μM ligand, pH 4.4), the “mass of single species by sedimentation equilibrium” value is reported as 55,784±107.87 Da. On transthyretin (72 h at 37° C. and pH 4.4), the “quaternary structure under tetramer-dissociating conditions” value is given as “remains tetrameric”.

The values above are taken from US8236984B2, “Compound and use thereof in the treatment of amyloidosis” (Pentraxin Therapeutics Ltd., priority 2007, dated 2012).
